The text below walks through data of paper PMC5075052, “Modulation of the Substitution Pattern of 5-Aryl-2-Aminoimidazoles Allows Fine-Tuning of Their Antibiofilm Activity Spectrum and Toxicity” (Antimicrobial Agents and Chemotherapy, 2016).

The subject of assay [1] is S. aureus SH1000. The assay can be described thus: Monospecies bacterial biofilm inhibition, static peg assay. The format is cell-based, Staphylococcus aureus. Particulars: Staphylococcus aureus, SH1000, S. aureus SH1000, 37°C. The procedure:
(§1) A static peg assay, described previously ([27], [74]), was used for bacterial biofilm formation. The Calgary biofilm device consists of a platform carrying 96 polystyrene pegs (Nunc no. 445497) that fits as a microtiter plate lid, with 1 peg hanging into each microtiter plate well (Nunc no. 269789). Twofold serial dilutions of the compounds (dissolved in 100% dimethyl sulfoxide [DMSO] or ethanol) in 100 μl liquid broth (TSB diluted 1/20) per well were prepared in the microtiter plate in duplicate or triplicate with a maximum concentration of 1,600 μM and a minimum concentration of 0.8 μM. Subsequently, an overnight culture of S. Typhimurium ATCC 14028, P. aeruginosa PA14, E. coli TG1, S. epidermidis, S. aureus SH1000, or S. aureus ATCC 6538 (all grown in LB) was diluted 1:100 into TSB diluted 1/20 (or TSB for S. epidermidis, S. aureus SH1000, and S. aureus ATCC 6538), whereas overnight cultures of S. liquefaciens MG44 and B. cepacia LMG1222T were diluted 1:50 into TSB diluted 1/20. P. gingivalis ATCC 33277 cultures were diluted in TSB diluted 1/20 to have a final concentration of 1 × 10^8 cells/ml. Next, 100 μl was added to each well of the microtiter plate, resulting in a total volume of 200 μl medium per well (final concentration range of compounds, 800 μM [2% DMSO or ethanol] to 0.4 μM [0.001% DMSO or ethanol]). In the next step, the pegged lid was placed on the microtiter plate and the plate was incubated for 24 h or 48 h at 25°C or 37°C without shaking. At 37°C, the plates were placed in a sealed container with wet towels on the bottom to prevent evaporation of the growth medium. Biofilms of P. gingivalis ATCC 33277 were grown anaerobically at 37°C for 72 h. During this incubation period, biofilms were formed on the surface of the pegs. After incubation, the optical density at 600 nm (OD600) for the planktonic cells in the microtiter plate was measured using a Synergy MX multimode reader (BioTek, Winooski, VT). This gives a first indication of the effect of the compounds on planktonic growth. For quantification of biofilm formation, the pegs were washed once in 200 μl PBS. The remaining attached bacteria were stained for 30 min with 200 μl 0.1% (wt/vol) crystal violet in an isopropanol-methanol-PBS solution (1:1:18, vol/vol). Excess stain was rinsed off by placing the pegs in a 96-well plate filled with 200 μl distilled water per well. After air drying of the pegs (30 min), the dye bound to the adherent biofilm was extracted with 30% glacial acetic acid (200 μl per well of a 96-well plate). The optical density at 570 nm (OD570) of each well was measured using a Synergy MX multimode reader (BioTek, Winooski, VT). The concentration of each compound needed to inhibit biofilm formation by 50% (BIC50) and the concentration of each compound needed to inhibit planktonic growth by 50% (IC50) were determined from the concentration gradient by using nonlinear curve fitting (GraphPad Prism software, version 5; GraphPad Software, Inc., La Jolla, CA). In the same assay, the effect on planktonic growth was evaluated. The activity was considered biofilm specific if the BIC50 was at least two times lower than the IC50. Data represent the means from at least 3 technical repeats with the corresponding 95% confidence intervals (provided in the supplemental material).

Assay [2] relates to P. gingivalis ATCC 33277. The assay can be described thus: Monospecies bacterial biofilm inhibition, static peg assay (anaerobic, 72 h). The format is cell-based. Particulars: Porphyromonas gingivalis, ATCC33277, P. gingivalis ATCC 33277, 37°C. The procedure: as §1
Assay [3] concerns S. liquefaciens MG44. Kind of assay: Monospecies bacterial biofilm inhibition, static peg assay. In kind it is cell-based, Serratia liquefaciens. Particulars: Serratia liquefaciens, S. liquefaciens MG44, 25°C. The procedure:
as §1

The subject of assay [4] is S. aureus ATCC 6538 + S. epidermidis. Kind of assay: Mixed-species S. aureus-S. epidermidis biofilm assay (peg, crystal violet). In kind it is cell-based, Staphylococcus aureus + Staphylococcus epidermidis. Particulars: 48 h, 37°C. The procedure: Overnight cultures of S. aureus ATCC 6538 and S. epidermidis were grown in LB medium and were diluted 1/200 in the same vial of TSB to form a mixed-culture suspension. Next, 2-fold serial dilutions of the compounds (dissolved in 100% DMSO or ethanol) in 100 μl TSB medium per well were prepared in the microtiter plate (Nunc no. 269789) in duplicate or triplicate with a maximum concentration of 1,600 μM and a minimum concentration of 0.8 μM. One hundred microliters of the mixed-culture suspension was added to each well of the microtiter plate, resulting in a total volume of 200 μl medium per well (final concentration range of compounds, 800 μM [2% DMSO or ethanol] to 0.4 μM [0.001% DMSO or ethanol]). The cells were then incubated for 48 h at 37°C, which allowed biofilm formation on the pegs (Nunc no. 269789) of the Calgary biofilm device. After 24 h, fresh medium with compounds was added to the wells, and after 48 h, the biofilm was colored with crystal violet as described above ([74]). The OD570 (biofilm) and OD600 (planktonic) were measured, and the BIC50 and the IC50, respectively, were calculated.

The subject of assay [5] is C. albicans SC5314 + S. epidermidis. Kind of assay: Mixed C. albicans-S. epidermidis biofilm, selective plating CFU. In kind it is cell-based, Candida albicans + Staphylococcus epidermidis. The conditions noted are these: 37°C; for activity at 25 µM: 25 μM compound. The procedure:
Overnight cultures of C. albicans SC5314 (YPD) and S. epidermidis (TSB) were diluted in RPMI 1640 medium to OD600s of 0.05 and 0.01, respectively. Equal volumes of the cell suspensions of each organism were mixed before use. One hundred microliters of this mixed cell suspension together with compound was added to the wells of a round-bottom microtiter plate (TPP; Trasadingen, Switzerland) in triplicate. Concentrations of 25 μM (0.0625% DMSO or ethanol) and 100 μM (0.25% DMSO or ethanol) were tested. After 24 h of incubation at 37°C, the biofilms were washed with PBS and fresh medium with or without compounds was added. After a further incubation for 48 h at 37°C, the biofilms were washed with PBS, after which the cells were resuspended in 100 μl of PBS by scraping them off, sonicated (1 min, 45 kHz; USC300-T; VWR, Radnor, PA, USA), and vigorously pipetted up and down. Finally, the biofilm cells were diluted in PBS and plated on YPD agar plates containing 100 mg/liter ampicillin and TSA plates containing 25 mg/liter amphotericin B to determine the number of fungal and bacterial CFU, respectively, after 2 days of incubation at 37°C. The percentage of C. albicans SC5314 and S. epidermidis cells relative to the number of cells after DMSO or ethanol control treatment was determined.

[6] abbreviates: read-out: IC50 (planktonic growth).

Read-outs that look alike come from different tables or passages of the source.

In the case of `Clc1ccc(-c2cnc(NC3CCCC3)[nH]2)cc1` [Compound 5], the IC50 in assay [1] (read-out: BIC50) amounted to 70.6 µM; in assay [1] (setting [6]), 71.5 µM; in assay [2] (read-out: BIC50) it was 5.7 µM; in assay [2] (setting [6]) it was 4 µM; in assay [3] (read-out: BIC50), 8.8 µM; in assay [3] (setting [6]), 125 µM. Also, the IC50 in assay [4] (mixed S. aureus ATCC 6538 + S. epidermidis biofilm, read-out: BIC50) is roughly 66.6 µM; in assay [4] (mixed S. aureus ATCC 6538 + S. epidermidis, read-out: IC50 (planktonic growth)), roughly 91.7 µM. Also, the activity at 25 µM in assay [5] (read-out: % CFU survival, C. albicans) was determined as 168%; in assay [5] (read-out: % CFU survival, S. epidermidis), 72%. In addition, the “% CFU survival, S. epidermidis” value in assay [5] (100 μM compound) is listed as “complete inhibition”. The activity at 100 µM in assay [5] (100 μM compound, read-out: % CFU survival, C. albicans) was found to be 595%; in assay [5] (100 μM compound, read-out: % CFU survival, S. epidermidis), 2.3%.
